Results from PMC9767310 (Journal of chemical information and modeling, 2022).
Entries after “also recorded” stand apart in the source; their conditions may differ. Where a name gives a salt, the structure may show the parent alone. One block for each molecule: values may come before it.

Legend:
αVβ3 [1] = biological target: T1, αVβ3 (Homo sapiens, UniProt P05106+P06756); assay: αVβ3-mediated cell adhesion to fibrinogen; assay type: cell-based
αVβ3 [2] = biological target: T1, αVβ3; assay: Monoclonal antibody AP5 binding assay; assay type: cell-based
[3] = biological target: recombinant αVβ3 ectodomain (Homo sapiens, UniProt P05106+P06756); assay: Negative-stain electron microscopy of αVβ3 ectodomain conformation

SMILES: COc1ccc([C@H](CC(=O)O)N2CCN(CCCc3ccc4c(n3)NCCC4)C2=O)cn1 [MK-429, reference compound]
inhibition of αVβ3-mediated cell adhesion (positive control) (αVβ3 [1]; 3 nM): > 90%

SMILES: c1ccc2c(N3CCN(Cc4ccc5c(n4)NCCC5)CC3)ccnc2c1 [MSR02, 7-((4-(quinolin-4-yl)piperazin-1-yl)methyl)-1,2,3,4-tetrahydro-1,8-naphthyridine]
IC50 (αVβ3 [1]): 2000 ± 1730 nM

Second part, led by results:

IC50 (αVβ3 [1]): 1300 ± 330 nM
SMILES: OCC[C@@H]1CN(c2ccnc3ccccc23)CCN1Cc1ccc2c(n1)NCCC2 [MSR01R, (R)-2-(4-(quinolin-4-yl)-1-((5,6,7,8-tetrahydro-1,8-naphthyridin-2-yl)methyl)piperazin-2-yl)ethan-1-ol hydrochloride]

IC50 (αVβ3 [1]): 1000 ± 300 nM
SMILES: OCC[C@H]1CN(c2ccnc3ccccc23)CCN1Cc1ccc2c(n1)NCCC2 [MSR01S, (S)-2-(4-(quinolin-4-yl)-1-((5,6,7,8-tetrahydro-1,8-naphthyridin-2-yl)methyl)-piperazin-2-yl)ethan-1-ol hydrochloride]

EC50 (αVβ3 [2]; EC50 (half-maximal exposure of the AP5 epitope), MSR03 dihydrochloride prepared in 1 M NaCl, n = 3): > 300 µM | percentage of αVβ3 in the active, extended-open conformation ([3]; 312 μM, control 5%): did not increase this percentage | IC50 (αVβ3 [1]): 1600 ± 580 nM | increase in potency vs ZINC72424116 (αVβ3 [1]; adhesion IC50): 3.5 fold
SMILES: Cl.Cl.O=C(NCCCc1ccc2c(n1)NCCC2)Nc1ccnc2ccccc12 [MSR03, 1-(quinolin-4-yl)-3-(3-(5,6,7,8-tetrahydro-1,8-naphthyridin-2-yl)propyl)urea dihydrochloride]
exposure of the AP5 epitope (in words) (αVβ3 [2]; HEK-αVβ3 cells): did not expose the AP5 epitope; also recorded: does not expose the epitope for the ligand-induced binding site of antibody AP5 | receptor extension and swing-out by negative-stain EM (in words) [3]: does not induce receptor extension and swing-out
